Test results from US8633242B2, “Benzylidene indanones and processes for preparation and use thereof” (Council of Scientific and Industrial Research, priority 2011, dated 2014).

Assays:
HCT (Colon) = test: Sulphorhodamine B cytotoxicity assay, HCT; assay type: cell-based, human; parameters: key to Human cancer cell lines IC50, HCT (Colon): Inactive: inactive, if IC50 > 100 μM; settings: for IC50 / Human cancer cell lines IC50, HCT (Colon): SRB assay, 48 hours incubation; for IC50: read-out: Human cancer cell lines IC50, HCT (Colon)
Protocol: (§1) The benzylidene analogues were evaluated by Sulphorhodamine B Assay as per reported method [Skehan et al., J. Natl. Cancer Inst. 1990, 82, 1107]. The human cancer cell lines procured from National Cancer institute, Frederick, U.S.A. were used in present study. Cells were grown in tissue culture flasks in complete growth medium (RPMI-1640 medium with 2 mM glutamine, pH 7.4 supplemented with 10% fetal bovine serum, 100 μg/ml streptomycin and 100 units/ml penicillin) in a carbon dioxide incubator (37° C., 5% CO2, 90% RH). The cells at subconfluent stage were harvested from the flask by treatment with trypsin (0.05% in PBS (pH 7.4) containing 0.02% EDTA). Cells with viability of more than 98%, as determined by trypan blue exclusion, were used for determination of cytotoxicity. The cell suspension required concentration of cells was prepared in complete growth medium. Stock solution of 2×10^−2 M of compounds were prepared in DMSO and further dilution was carried out complete growth medium containing 50 μg/ml of gentamycin to obtained working test solution of required concentration. In vitro cytotoxicity against various human cancer cell lines was determined using 96-well cell culture plates. The 100 μl of cell suspension was added to each well of the 96-well cell culture plates. The cells were allowed to grow in CO2 incubator (37° C., 5% CO2, 90% RH) for 24 hours. The test materials in complete growth medium (100 μl) were added after 24 hours incubation to the wells containing cell suspension. The plates were further incubated for 48 hours (37° C. in an atmosphere of 5% CO2 and 90% relative humidity) in a carbon dioxide incubator after addition of test material and then the cell growth was stopped by gently layering trichloroacetic acid (50% TCA, 50 μl) on top of the medium in all the wells. The plates were incubated at 4° C. for one hour to fix the cells attached to the bottom of the wells. The liquid of all the wells was gently pipetted out and discarded. The plates were washed five times with distilled water to remove TCA, growth medium low molecular weight metabolites, serum proteins etc. and air-dried. Cell growth was measured by staining with sulforhodamine B dye. The adsorbed dye was dissolved in Tris-HCl Buffer (100 μl/well, 0.01M, pH 10.4) and plates were gently stirred for 10 minutes on a mechanical stirrer. The optical density (OD) was recorded on ELISA reader at 540 nm. 5-Fluorouracil, Paclitaxel (Taxol), Mitomycin-c and Adriamycin were used as positive controls.

THP-1 (Leukemia) = test: Sulphorhodamine B cytotoxicity assay, THP-1; assay type: cell-based, human; parameters: key to Human cancer cell lines IC50, THP-1 (Leukemia): Inactive: inactive, if IC50 > 100 μM; settings: for IC50: read-out: Human cancer cell lines IC50, THP-1 (Leukemia)
Protocol: as §1

HeLa (Cervix) = test: Sulphorhodamine B cytotoxicity assay, HeLa; assay type: cell-based, human; parameters: key to Human cancer cell lines IC50, HeLa (Cervix): Inactive: inactive, if IC50 > 100 μM; settings: for IC50 / Human cancer cell lines IC50, HeLa (Cervix): SRB assay, 48 hours incubation; for IC50: read-out: Human cancer cell lines IC50, HeLa (Cervix)
Protocol: as §1

MCF-7 (Breast cancer) = test: Sulphorhodamine B cytotoxicity assay, MCF-7; assay type: cell-based, human; parameters: key to Human cancer cell lines IC50, MCF-7 (Breast cancer): Inactive: inactive, if IC50 > 100 μM; settings: for IC50: read-out: Human cancer cell lines IC50, MCF-7 (Breast cancer)
Protocol: as §1

A549 (Lung) = test: Sulphorhodamine B cytotoxicity assay, A549; assay type: cell-based, human; parameters: key to Human cancer cell lines IC50, A549 (Lung): Inactive: inactive, if IC50 > 100 μM; settings: for IC50 / Human cancer cell lines IC50, A549 (Lung): SRB assay, 48 hours incubation; for IC50: read-out: Human cancer cell lines IC50, A549 (Lung)
Protocol: as §1

PC-3 (prostate) = test: Sulphorhodamine B cytotoxicity assay, PC-3; assay type: cell-based, human; parameters: key to Human cancer cell lines IC50, PC-3 (prostate): Inactive: inactive, if IC50 > 100 μM; settings: for Human cancer cell lines IC50, PC-3 (prostate) / IC50: SRB assay, 48 hours incubation; for IC50: Homo sapiens, read-out: Human cancer cell lines IC50, PC-3 (prostate)
Protocol: as §1

DU-145 (prostate) = test: Sulphorhodamine B cytotoxicity assay, DU-145; assay type: cell-based, human; parameters: key to Human cancer cell lines IC50, DU-145 (prostate): Inactive: inactive, if IC50 > 100 μM; settings: SRB assay, 48 hours incubation; for IC50: Homo sapiens, DU-145, read-out: Human cancer cell lines IC50, DU-145 (prostate)
Protocol: as §1

tubulin protein = test: In-vitro tubulin polymerisation inhibition assay; assay type: biochemical; parameters: key to Tubulin polymerisation inhibition IC50: Inactive: inactive, if IC50 > 10 μM; settings: for IC50: read-out: Tubulin polymerisation inhibition IC50; for IC50 / Tubulin polymerisation inhibition IC50: tubulin 3 mg/mL, 37° C., 340 nm, 1 h
Protocol: The tubulin polymerization experiment was performed using ‘assay kit’ (Cytoskeleton USA) following manufacturer's protocol based on the procedure described by of Shelanski et al. (1973) and Lee et al. (1977). Briefly, tubulin protein (3 mg/mL) in tubulin polymerization buffer (80 mM PIPES, pH 6.9, 2 mM MgCl2, 0.5 mM EGTA, 1 mM GTP and 15% glycerol) was placed in pre-warmed 96-well microtiter plates at 37° C. in the presence of test compounds with variable concentrations. All samples were mixed well and polymerization was monitored kinetically at 340 nm every min for 1 h using a Spectramax plate reader. Podophyllotoxin and etoposide were used as positive controls and DMSO as negative control. The IC50 value was determined from dose-dependent analysis and is defined as the concentration that inhibits the rate of polymerization by 50%.
Podophyllotoxin and etoposide, standard tubulin polymerisation inhibitors were used as positive controls.

[1] = Homo sapiens, THP-1, SRB assay, 48 hours incubation
[2] = Homo sapiens, MCF7, SRB assay, 48 hours incubation

| SMILES | IC50 (A549 (Lung); Homo sapiens, A549) | Human cancer cell lines IC50, PC-3 (prostate) (PC-3 (prostate)) | IC50 (HCT (Colon); Homo sapiens) | IC50 (THP-1 (Leukemia); [1]) | IC50 (HeLa (Cervix); Homo sapiens, HeLa) | IC50 (MCF-7 (Breast cancer); [2]) | Human cancer cell lines IC50, DU-145 (prostate) (DU-145 (prostate)) | IC50 (tubulin protein) | melting point | also measured |
| --- | --- | --- | --- | --- | --- | --- | --- | --- | --- | --- |
| O=c1[nH]cc(F)c(=O)[nH]1 [5-Fluorouracil, reference compound] | – | – | – | – | – | – | – | – | – | inhibition at 20 µM (HCT (Colon); Homo sapiens, positive control at 20 μM): 65%; inhibition at 20 µM (THP-1 (Leukemia); Homo sapiens, THP-1, positive control at 20 μM): 74%; inhibition at 20 µM (HeLa (Cervix); Homo sapiens, HeLa, positive control at 20 μM): 70% |
| COc1cccc2c1C(=O)c1c(O)c3c(c(O)c1C2=O)C[C@@](O)(C(=O)CO)C[C@@H]3O[C@H]1C[C@H](N)[C@H](O)[C@H](C)O1 [Adriamycin, reference compound] | – | – | – | – | – | – | – | – | – | inhibition at 1 µM (MCF-7 (Breast cancer); Homo sapiens, MCF7, positive control at 1 μM): 65% |
| COc1cc(/C=C2\C(=O)c3cc(OC)c(OC)c(OC)c3C2c2cc(OC)c(OC)c(OC)c2)cc(OC)c1OC (stereo not shown) [Compound 9, 2-(3″,4″,5″-trimethoxybenzylidene), 3-(3′,4′,5′-trimethoxyphenyl)-4,5,6-trimethoxy indan-1-one] | 67.6 µM | Inactive | 39.7 µM | 64.9 µM | 82.3 µM | 38.9 µM | Inactive | 4.62 µM | 118 to 120 °C | inhibition of tubulin polymerisation, in words (tubulin protein): strong inhibition |
| COc1ccc(/C=C2\C(=O)c3cc(OC)c(OC)c(OC)c3C2c2cc(OC)c(OC)c(OC)c2)cc1 (stereo not shown) [Compound 10, 2-(4″-methoxybenzylidene),3(3′,4′,5′-trimethoxyphenyl)-4,5,6-trimethoxy indan-1-one] | 13.4 µM | – | 18.6 µM | 0.88 µM | 21 µM | 3.18 µM | – | 4.67 µM | 188 to 190 °C | IC50 (PC-3 (prostate)): 65.7 µM; activity against leukemia cell lines (THP), in words (THP-1 (Leukemia)): potent activity; anticancer activity against human breast cancer cells (MCF-7), in words (MCF-7 (Breast cancer)): potent anticancer activity; IC50 (DU-145 (prostate)): 44.9 µM; inhibition of tubulin polymerisation, in words (tubulin protein): strong inhibition |
| COc1cc(C2/C(=C/c3ccc([N+](=O)[O-])cc3)C(=O)c3cc(OC)c(OC)c(OC)c32)cc(OC)c1OC (stereo not shown) [Compound 11, 2-(4″-nitrobenzlidene),3-(3′,4′,5′-trimethoxyphenyl)-4,5,6-trimethoxy indan-1-one] | – | Inactive | 97.3 µM | 89.5 µM | – | 88.1 µM | Inactive | – | 190 to 192 °C | Human cancer cell lines IC50, A549 (Lung) (A549 (Lung)): Inactive; Human cancer cell lines IC50, HeLa (Cervix) (HeLa (Cervix)): Inactive; Tubulin polymerisation inhibition IC50 (tubulin protein): Inactive |
| COc1cc(C2/C(=C/c3cccc([N+](=O)[O-])c3)C(=O)c3cc(OC)c(OC)c(OC)c32)cc(OC)c1OC (stereo not shown) [Compound 12, 2-(3″-nitrobenzylidene),3-(3′,4′,5′-trimethoxyphenyl)-4,5,6-trimethoxy indan-1-one] | – | Inactive | – | – | – | – | Inactive | – | 215 to 217 °C | Human cancer cell lines IC50, A549 (Lung) (A549 (Lung)): Inactive; Human cancer cell lines IC50, HCT (Colon) (HCT (Colon)): Inactive; Human cancer cell lines IC50, THP-1 (Leukemia) (THP-1 (Leukemia); SRB assay, 48 hours incubation): Inactive; Human cancer cell lines IC50, HeLa (Cervix) (HeLa (Cervix)): Inactive; Human cancer cell lines IC50, MCF-7 (Breast cancer) (MCF-7 (Breast cancer); SRB assay, 48 hours incubation): Inactive; Tubulin polymerisation inhibition IC50 (tubulin protein): Inactive |
| COc1ccccc1/C=C1\C(=O)c2cc(OC)c(OC)c(OC)c2C1c1cc(OC)c(OC)c(OC)c1 (stereo not shown) [Compound 19, 2-(2″-methoxybenzylidene), 3-(3′,4′,5′-trimethoxyphenyl)-4,5,6-trimethoxy indan-1-one] | 62.6 µM | Inactive | – | 29.3 µM | – | – | – | – | 191 to 192 °C | Human cancer cell lines IC50, HCT (Colon) (HCT (Colon)): Inactive; Human cancer cell lines IC50, HeLa (Cervix) (HeLa (Cervix)): Inactive; IC50 (DU-145 (prostate)): 21.5 µM; Tubulin polymerisation inhibition IC50 (tubulin protein): Inactive |
| COc1cc([C@@H]2c3cc4c(cc3[C@@H](O[C@@H]3O[C@@H]5CO[C@@H](C)O[C@H]5[C@H](O)[C@H]3O)[C@H]3COC(=O)[C@H]23)OCO4)cc(OC)c1O [Etoposide, reference compound] | 5.4 µM | Inactive | 6.5 µM | < 1 µM | < 1 µM | 1.5 µM | Inactive | […] | – | – |
| CO[C@@]12[C@H](COC(N)=O)C3=C(C(=O)C(C)=C(N)C3=O)N1C[C@@H]1N[C@@H]12 [Mitomycin-c, reference compound] | – | – | – | – | – | – | – | – | – | % Inhibition, PC-3 (Prostate) (PC-3 (prostate); positive control at 1 μM): 61% |
| CC(=O)O[C@H]1C(=O)[C@@]2(C)[C@H]([C@H](OC(=O)c3ccccc3)[C@]3(O)C[C@H](OC(=O)[C@H](O)[C@@H](NC(=O)c4ccccc4)c4ccccc4)C(C)=C1C3(C)C)[C@]1(OC(C)=O)CO[C@@H]1C[C@@H]2O [Paclitaxel, reference compound] | – | – | – | – | – | – | – | – | – | inhibition at 1 µM (A549 (Lung); Homo sapiens, A549, positive control at 1 μM): 69% |
| COc1cc([C@@H]2c3cc4c(cc3[C@H](O)[C@H]3COC(=O)[C@H]23)OCO4)cc(OC)c1OC [Podophyllotoxin, reference compound] | < 1 µM | – | < 1 µM | < 1 µM | < 1 µM | < 1 µM | – | […] | – | IC50 (PC-3 (prostate)): 91.5 µM; IC50 (DU-145 (prostate)): 91.5 µM |
